Assay results from ChEMBL document CHEMBL3739348, “Novel pyrrole derivatives as selective CHK1 inhibitors: design, regioselective synthesis and molecular modeling” (Medchemcomm, 2015).

Key:
[1] = molecular target: Casein kinase I isoform delta (Homo sapiens) (UniProt P48730); test: Inhibition of CK1d (unknown origin) at 30 uM by microfluidic assay relative to control
[2] = molecular target: Tyrosine-protein kinase Fyn (Homo sapiens) (UniProt P06241); test: Inhibition of FYN (unknown origin) at 30 uM by microfluidic assay relative to control
[3] = molecular target: Tyrosine-protein kinase Lyn (Homo sapiens) (UniProt P07948); test: Inhibition of LYN (unknown origin) at 30 uM by microfluidic assay relative to control
[4] = molecular target: Proto-oncogene tyrosine-protein kinase Src (Homo sapiens) (UniProt P12931); test: Inhibition of SRC (unknown origin) at 30 uM by microfluidic assay relative to control
Proto-oncogene tyrosine-protein kinase Src (Homo sapiens), sequence (P12931 2-536 limits assumed): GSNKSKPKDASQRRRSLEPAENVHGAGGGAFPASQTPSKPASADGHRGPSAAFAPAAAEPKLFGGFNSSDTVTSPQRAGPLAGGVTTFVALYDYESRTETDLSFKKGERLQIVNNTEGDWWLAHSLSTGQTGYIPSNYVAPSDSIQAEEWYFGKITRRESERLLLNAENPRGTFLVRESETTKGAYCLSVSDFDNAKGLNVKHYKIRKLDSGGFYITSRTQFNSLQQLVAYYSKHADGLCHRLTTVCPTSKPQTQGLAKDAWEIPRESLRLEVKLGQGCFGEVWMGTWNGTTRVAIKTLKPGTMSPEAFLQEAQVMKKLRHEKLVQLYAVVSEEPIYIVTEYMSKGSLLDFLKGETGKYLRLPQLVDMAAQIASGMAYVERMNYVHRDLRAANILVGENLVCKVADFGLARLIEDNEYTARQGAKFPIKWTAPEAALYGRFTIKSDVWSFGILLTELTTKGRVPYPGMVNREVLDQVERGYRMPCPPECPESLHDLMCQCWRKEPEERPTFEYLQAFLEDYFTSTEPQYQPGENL

[5] = molecular target: RAC-alpha serine/threonine-protein kinase (Homo sapiens) (UniProt P31749); test: Inhibition of AKT1 (unknown origin) at 30 uM by microfluidic assay relative to control
RAC-alpha serine/threonine-protein kinase (Homo sapiens), sequence (P31749 whole entry): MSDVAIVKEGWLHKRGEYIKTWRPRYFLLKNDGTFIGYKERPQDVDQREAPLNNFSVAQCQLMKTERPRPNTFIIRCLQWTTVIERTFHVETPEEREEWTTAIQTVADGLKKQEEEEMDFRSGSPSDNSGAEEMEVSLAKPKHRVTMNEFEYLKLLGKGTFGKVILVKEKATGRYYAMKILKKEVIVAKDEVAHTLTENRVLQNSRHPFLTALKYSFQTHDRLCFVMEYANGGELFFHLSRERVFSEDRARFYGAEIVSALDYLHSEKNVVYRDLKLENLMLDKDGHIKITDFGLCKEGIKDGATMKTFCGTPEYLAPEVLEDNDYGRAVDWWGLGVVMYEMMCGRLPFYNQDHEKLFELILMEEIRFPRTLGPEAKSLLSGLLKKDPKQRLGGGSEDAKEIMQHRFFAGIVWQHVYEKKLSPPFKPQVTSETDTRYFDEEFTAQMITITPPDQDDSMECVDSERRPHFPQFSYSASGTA

[6] = molecular target: T1, MAP kinase-activated protein kinase 5 (Homo sapiens) (UniProt Q8IW41); test: Inhibition of MAPKAPK5 (unknown origin) at 30 uM by microfluidic assay relative to control
T1 sequence (whole entry): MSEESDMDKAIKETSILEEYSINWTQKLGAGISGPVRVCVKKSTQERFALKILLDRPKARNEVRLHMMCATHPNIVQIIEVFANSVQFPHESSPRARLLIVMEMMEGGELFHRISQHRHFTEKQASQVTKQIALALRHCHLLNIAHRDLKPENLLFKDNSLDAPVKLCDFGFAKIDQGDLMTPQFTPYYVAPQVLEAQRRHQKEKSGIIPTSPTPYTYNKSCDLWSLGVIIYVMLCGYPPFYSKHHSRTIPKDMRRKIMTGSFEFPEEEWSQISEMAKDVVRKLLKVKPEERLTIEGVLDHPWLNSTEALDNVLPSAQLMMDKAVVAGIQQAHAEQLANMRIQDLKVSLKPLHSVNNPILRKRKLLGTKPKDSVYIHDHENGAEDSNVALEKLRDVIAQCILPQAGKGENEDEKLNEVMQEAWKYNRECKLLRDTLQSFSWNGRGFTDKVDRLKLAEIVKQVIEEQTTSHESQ

[7] = molecular target: T2, Serine/threonine-protein kinase Chk1 (Homo sapiens, UniProt O14757); test: Inhibition of CHK1 (unknown origin) by microfluidic assay relative to control
T2 sequence (O14757 whole entry): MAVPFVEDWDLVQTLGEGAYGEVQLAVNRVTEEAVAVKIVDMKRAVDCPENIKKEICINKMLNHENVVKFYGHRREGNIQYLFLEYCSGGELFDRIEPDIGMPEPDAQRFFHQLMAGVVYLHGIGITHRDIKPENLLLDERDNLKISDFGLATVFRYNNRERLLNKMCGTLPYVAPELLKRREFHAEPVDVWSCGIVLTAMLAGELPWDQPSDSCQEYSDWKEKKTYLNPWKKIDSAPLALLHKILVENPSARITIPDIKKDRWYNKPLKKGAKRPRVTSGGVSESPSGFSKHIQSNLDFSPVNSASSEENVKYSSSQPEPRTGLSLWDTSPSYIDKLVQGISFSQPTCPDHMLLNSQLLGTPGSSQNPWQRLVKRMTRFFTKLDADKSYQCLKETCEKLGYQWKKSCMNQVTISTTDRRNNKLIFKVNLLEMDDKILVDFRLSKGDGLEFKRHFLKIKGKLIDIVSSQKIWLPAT

[8] = molecular target: Tyrosine-protein kinase Lck (Homo sapiens) (UniProt P06239); test: Inhibition of LCK (unknown origin) at 30 uM by microfluidic assay relative to control
Tyrosine-protein kinase Lck (Homo sapiens), sequence (P06239 2-509 limits assumed): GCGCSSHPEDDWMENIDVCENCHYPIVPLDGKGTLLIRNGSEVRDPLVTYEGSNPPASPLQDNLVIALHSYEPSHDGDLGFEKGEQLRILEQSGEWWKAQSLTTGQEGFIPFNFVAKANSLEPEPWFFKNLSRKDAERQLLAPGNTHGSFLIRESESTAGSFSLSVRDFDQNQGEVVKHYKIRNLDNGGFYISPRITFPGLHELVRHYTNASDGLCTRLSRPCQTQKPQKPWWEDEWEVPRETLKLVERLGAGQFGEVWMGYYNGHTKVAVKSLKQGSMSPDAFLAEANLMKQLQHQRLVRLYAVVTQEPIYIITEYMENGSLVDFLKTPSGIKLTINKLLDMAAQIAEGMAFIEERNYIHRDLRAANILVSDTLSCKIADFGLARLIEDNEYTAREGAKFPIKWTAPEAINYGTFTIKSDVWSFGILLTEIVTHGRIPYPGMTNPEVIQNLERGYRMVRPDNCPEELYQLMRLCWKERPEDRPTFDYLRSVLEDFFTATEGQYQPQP

[9] = molecular target: T3, Serine/threonine-protein kinase Chk1 (Homo sapiens) (UniProt O14757); test: Inhibition of CHK1 (unknown origin) at 30 uM by microfluidic assay relative to control
T3 sequence (whole entry): T2 sequence (O14757 whole entry)

[10] = molecular target: Vascular endothelial growth factor receptor 2 (Homo sapiens, UniProt P35968); test: Inhibition of VEGFR-2 (unknown origin) at 30 uM by microfluidic assay relative to control
Vascular endothelial growth factor receptor 2, sequence (P35968 whole entry): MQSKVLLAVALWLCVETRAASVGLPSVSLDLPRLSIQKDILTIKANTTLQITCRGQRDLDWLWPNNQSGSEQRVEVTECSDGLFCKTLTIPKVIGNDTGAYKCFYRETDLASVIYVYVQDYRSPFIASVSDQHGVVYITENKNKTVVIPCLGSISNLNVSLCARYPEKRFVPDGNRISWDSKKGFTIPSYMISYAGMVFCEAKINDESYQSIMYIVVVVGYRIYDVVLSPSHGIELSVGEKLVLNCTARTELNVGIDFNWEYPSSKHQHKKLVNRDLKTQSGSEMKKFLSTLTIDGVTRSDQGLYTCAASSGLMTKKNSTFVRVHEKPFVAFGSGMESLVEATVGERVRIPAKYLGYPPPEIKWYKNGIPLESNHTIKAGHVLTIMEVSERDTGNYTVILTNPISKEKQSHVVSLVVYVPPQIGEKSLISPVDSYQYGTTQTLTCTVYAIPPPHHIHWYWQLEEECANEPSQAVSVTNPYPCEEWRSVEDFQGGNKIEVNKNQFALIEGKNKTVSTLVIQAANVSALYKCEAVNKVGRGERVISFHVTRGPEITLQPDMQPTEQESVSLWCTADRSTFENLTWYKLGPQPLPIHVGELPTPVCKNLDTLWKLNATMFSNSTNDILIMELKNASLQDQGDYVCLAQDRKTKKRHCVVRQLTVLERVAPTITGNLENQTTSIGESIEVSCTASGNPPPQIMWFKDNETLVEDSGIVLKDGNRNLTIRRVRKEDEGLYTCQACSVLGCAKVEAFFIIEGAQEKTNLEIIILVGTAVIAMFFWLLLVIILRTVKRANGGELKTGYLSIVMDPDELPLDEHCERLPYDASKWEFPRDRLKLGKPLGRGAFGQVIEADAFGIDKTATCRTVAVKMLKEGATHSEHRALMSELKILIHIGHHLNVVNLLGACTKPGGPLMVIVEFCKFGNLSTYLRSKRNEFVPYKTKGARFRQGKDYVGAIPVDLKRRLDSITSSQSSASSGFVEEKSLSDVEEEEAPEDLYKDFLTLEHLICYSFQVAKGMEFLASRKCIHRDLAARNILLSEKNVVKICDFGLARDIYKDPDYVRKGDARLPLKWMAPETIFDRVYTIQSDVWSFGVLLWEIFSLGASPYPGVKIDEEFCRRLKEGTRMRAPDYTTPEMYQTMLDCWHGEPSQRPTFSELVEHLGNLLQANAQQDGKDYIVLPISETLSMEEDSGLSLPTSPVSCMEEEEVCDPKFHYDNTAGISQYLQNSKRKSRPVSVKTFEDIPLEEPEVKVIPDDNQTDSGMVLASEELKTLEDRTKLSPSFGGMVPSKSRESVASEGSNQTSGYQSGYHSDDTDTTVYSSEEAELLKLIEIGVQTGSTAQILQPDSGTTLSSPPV

[11] = molecular target: Ribosomal protein S6 kinase alpha-5 (Homo sapiens) (UniProt O75582); test: Inhibition of MSK1 (unknown origin) at 30 uM by microfluidic assay relative to control
[12] = molecular target: Mitogen-activated protein kinase 3 (Homo sapiens) (UniProt P27361); test: Inhibition of Erk1 (unknown origin) at 30 uM by microfluidic assay relative to control
Mitogen-activated protein kinase 3 (Homo sapiens), sequence (P27361 whole entry): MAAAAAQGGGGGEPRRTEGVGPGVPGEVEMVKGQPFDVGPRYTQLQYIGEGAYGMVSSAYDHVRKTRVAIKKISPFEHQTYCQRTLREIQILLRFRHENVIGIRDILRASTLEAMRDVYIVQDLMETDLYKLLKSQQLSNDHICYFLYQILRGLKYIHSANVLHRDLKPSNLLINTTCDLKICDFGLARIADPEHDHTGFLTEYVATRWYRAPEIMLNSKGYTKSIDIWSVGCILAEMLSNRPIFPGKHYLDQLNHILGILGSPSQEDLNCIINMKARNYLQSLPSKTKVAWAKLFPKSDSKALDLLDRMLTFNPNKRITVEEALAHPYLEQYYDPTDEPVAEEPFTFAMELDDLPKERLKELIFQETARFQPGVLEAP

[13] = molecular target: Ribosomal protein S6 kinase alpha-1 (Homo sapiens) (UniProt Q15418); test: Inhibition of RSK1 (unknown origin) at 30 uM by microfluidic assay relative to control
[14] = molecular target: Serine/threonine-protein kinase Chk2 (Homo sapiens) (UniProt O96017); test: Inhibition of CHK2 (unknown origin) at 30 uM by microfluidic assay relative to control
Serine/threonine-protein kinase Chk2 (Homo sapiens), sequence (O96017 whole entry): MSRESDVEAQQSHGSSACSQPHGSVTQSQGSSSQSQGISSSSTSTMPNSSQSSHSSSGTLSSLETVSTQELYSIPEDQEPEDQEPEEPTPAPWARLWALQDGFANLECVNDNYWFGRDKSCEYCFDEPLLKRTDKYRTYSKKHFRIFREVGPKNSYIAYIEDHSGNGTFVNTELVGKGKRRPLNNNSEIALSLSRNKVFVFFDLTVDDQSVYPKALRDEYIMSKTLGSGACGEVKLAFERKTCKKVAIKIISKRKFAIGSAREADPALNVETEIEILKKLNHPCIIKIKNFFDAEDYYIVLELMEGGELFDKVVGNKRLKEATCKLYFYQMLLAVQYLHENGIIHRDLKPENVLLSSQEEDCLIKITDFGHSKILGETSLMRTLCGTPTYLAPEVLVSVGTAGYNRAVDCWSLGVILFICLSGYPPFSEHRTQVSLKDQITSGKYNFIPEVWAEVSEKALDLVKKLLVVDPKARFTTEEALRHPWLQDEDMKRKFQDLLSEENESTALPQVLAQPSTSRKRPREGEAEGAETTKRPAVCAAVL

[15] = molecular target: Mitogen-activated protein kinase 1 (Homo sapiens) (UniProt P28482); test: Inhibition of Erk2 (unknown origin) at 30 uM by microfluidic assay relative to control
Mitogen-activated protein kinase 1 (Homo sapiens), sequence (P28482 whole entry): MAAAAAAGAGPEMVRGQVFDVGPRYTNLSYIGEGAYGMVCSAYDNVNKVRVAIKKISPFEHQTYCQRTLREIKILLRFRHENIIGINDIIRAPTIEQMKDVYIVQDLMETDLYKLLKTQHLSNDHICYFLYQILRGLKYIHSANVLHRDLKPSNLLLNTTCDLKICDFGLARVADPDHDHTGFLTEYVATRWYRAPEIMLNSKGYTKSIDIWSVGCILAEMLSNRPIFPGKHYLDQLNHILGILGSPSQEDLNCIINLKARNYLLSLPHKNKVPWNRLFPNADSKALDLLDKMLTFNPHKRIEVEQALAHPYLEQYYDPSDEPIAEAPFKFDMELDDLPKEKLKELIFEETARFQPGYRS

[16] = molecular target: Hepatocyte growth factor receptor (Homo sapiens) (UniProt P08581); test: Inhibition of MET (unknown origin) at 30 uM by microfluidic assay relative to control
[17] = molecular target: Glycogen synthase kinase-3 (Homo sapiens) (UniProt P49840+P49841); test: Inhibition of GSK3 (unknown origin) at 30 uM by microfluidic assay relative to control; format: protein assay
[18] = molecular target: Insulin receptor (Homo sapiens) (UniProt P06213); test: Inhibition of InsR (unknown origin) at 30 uM by microfluidic assay relative to control

Casein kinase I isoform delta (Homo sapiens), sequence (P48730 whole entry, looked up, canonical isoform): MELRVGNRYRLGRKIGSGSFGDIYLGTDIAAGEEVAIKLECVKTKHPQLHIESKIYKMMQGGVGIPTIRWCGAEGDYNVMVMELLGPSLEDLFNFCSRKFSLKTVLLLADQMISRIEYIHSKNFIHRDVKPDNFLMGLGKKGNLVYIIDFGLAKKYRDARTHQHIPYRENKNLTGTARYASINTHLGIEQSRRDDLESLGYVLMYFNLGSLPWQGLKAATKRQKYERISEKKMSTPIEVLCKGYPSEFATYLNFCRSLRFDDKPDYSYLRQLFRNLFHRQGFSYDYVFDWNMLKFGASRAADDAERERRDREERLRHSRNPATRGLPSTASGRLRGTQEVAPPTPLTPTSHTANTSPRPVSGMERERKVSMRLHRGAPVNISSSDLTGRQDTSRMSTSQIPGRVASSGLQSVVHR

Row | inhibition [1] [%] | inhibition [2] [%] | inhibition [3] [%] | inhibition [4] [%] | inhibition [5] [%] | inhibition [6] [%] | IC50 [7] [nM] | inhibition [8] [%] | inhibition [9] [%] | inhibition [10] [%] | inhibition [11] [%] | inhibition [12] [%] | inhibition [13] [%] | inhibition [14] [%] | inhibition [15] [%] | inhibition [16] [%] | inhibition [17] [%] | inhibition [18] [%] | Compound
1 | 43 | 21 | 24 | 33 | 45 | 54 | 800 | 25 | 80 | 100 | 87 | 8 | 2 | 4 | 24 | 3 | 23 | 33 | Cc1[nH]c(-c2ccccc2)c(-c2ccccc2)c1C(=O)c1cn(-c2ccccc2)nc1C(=O)Nc1ccccc1
2 | 22 | 21 | 34 | 21 | 13 | 54 | 310 | 32 | 96 | 100 | 34 | 3 | 4 | 55 | 21 | 34 | 2 | 32 | Cc1[nH]c(-c2ccccc2)c(-c2ccccc2)c1C(=O)c1coc2c1cc(O)c1ccccc12
3 | 53 | 12 | 5 | 23 | 90 | 32 | 690 | 32 | 84 | 100 | 34 | 8 | 36 | 24 | 23 | 4 | 43 | 12 | Cc1[nH]c(-c2ccccc2)c(-c2ccccc2)c1-c1nnc(O)c2nn(-c3ccccc3)cc12
